34 compounds from patent publication US11702418B2, “SOS1 inhibitors” (priority 2019, dated 2023) can be followed below.

SMILES strings stand for the structures. Counter-ions that a name gives are not always drawn. Like-named read-outs stand apart in the source and are kept apart here.

One assay concerns pERK in MKN1 cells. As to the kind of experiment: cells. As to conditions: Homo sapiens. It counts as cell-based.
In assay [1] the target is recombinant human SOS1 polypeptide (amino acids 560-1049) (Homo sapiens (Human), UniProt Q07889). Put plainly: biochemical. It counts as binding.
Where [2] appears, read: MKN-1, pERK inhibition, In-Cell Western, MKN1 or H358 cells (Table 24 does not say which), 0.5-1 hour incubation, read-out: IC50.
[3] abbreviates: HTRF displacement, Cy5 labelled tracer, Morrison equation for competitive binding, read-out: Ki, Inhibition of Labeled Tracer Binding to SOS1.
[4] abbreviates: MKN-1, pERK inhibition, In-Cell Western, MKN1 or H358 cells (Table 24 does not say which), 0.5-1 hour incubation.
Setting [5] is: read-out: Ki, Inhibition of Labeled Tracer Binding to SOS1.

Chain of recombinant human SOS1 polypeptide (amino acids 560-1049) (Q07889 560-1049): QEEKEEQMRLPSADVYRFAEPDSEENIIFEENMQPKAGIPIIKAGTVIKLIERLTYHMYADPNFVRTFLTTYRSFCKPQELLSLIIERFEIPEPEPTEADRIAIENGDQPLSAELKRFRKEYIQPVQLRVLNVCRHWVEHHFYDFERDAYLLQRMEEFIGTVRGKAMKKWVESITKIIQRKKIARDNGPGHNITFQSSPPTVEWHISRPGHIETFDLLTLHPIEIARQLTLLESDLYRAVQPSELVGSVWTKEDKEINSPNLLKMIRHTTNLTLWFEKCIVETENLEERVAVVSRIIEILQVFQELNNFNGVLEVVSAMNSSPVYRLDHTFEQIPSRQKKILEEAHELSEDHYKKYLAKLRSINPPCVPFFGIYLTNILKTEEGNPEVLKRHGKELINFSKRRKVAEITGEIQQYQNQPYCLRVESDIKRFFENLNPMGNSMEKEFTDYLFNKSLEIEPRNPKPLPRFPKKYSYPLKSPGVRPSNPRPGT

Regarding `Cc1cc(F)ccc1[C@@H](C)Nc1nnc(C)c2cnc(N3CCN4CCOC[C@@H]4C3)cc12` [Example 12-79], the IC50 in the assay on pERK in MKN1 cells (setting [2]) was 173 nM. In addition, the Ki in assay [1] (setting [3]) is 36.3 nM.

The compound `Cc1c([C@@H](C)Nc2nnc(CN(C)C)c3ccc(N4CCOCC4)cc23)cccc1C(F)(F)F` [Example 14-1, (R)-4-((dimethylamino)methyl)-N-(1-(2-methyl-3-(trifluoromethyl)phenyl)ethyl)-7-morpholinophthalazin-1-amine] gave an IC50 in the assay on pERK in MKN1 cells (setting [4]) of 68 nM. For the same compound, the Ki in assay [1] (setting [5]) was determined as 8.97 nM.

Take `Cc1c([C@@H](C)Nc2nncc3ccc(N4CCN(C)C(CF)C4)cc23)cccc1C(F)(F)F` (stereo partly drawn) [Example 1-43, 7-(3-(fluoromethyl)-4-methylpiperazin-1-yl)-N-((R)-1-(2-methyl-3-(trifluoromethyl)phenyl)ethyl)phthalazin-1-amine]: in the assay with pERK in MKN1 cells (setting [2]), the IC50 came to 216 nM. In addition, the Ki in assay [1] (setting [3]) stood at 1.36 nM.

As for `Cc1c([C@@H](C)Nc2nnc(C)c3ccc(OC[C@@H]4CCCN4)cc23)cccc1C(F)(F)F` [Example 7-6, 4-methyl-N-((R)-1-(2-methyl-3-(trifluoromethyl)phenyl)ethyl)-7-(((S)-pyrrolidin-2-yl)methoxy)phthalazin-1-amine], the IC50 in the assay with pERK in MKN1 cells (setting [2]) came to 110 nM. For the same compound, the Ki in assay [1] (setting [3]) was found to be 1.41 nM.

As to `Cc1c([C@@H](C)Nc2nnc(C)c3ccc(N4CC[C@H](N(C)C)C(F)(F)C4)cc23)cccc1C(F)(F)F` [Example 21-6, 7-((S)-4-(dimethylamino)-3,3-difluoropiperidin-1-yl)-4-methyl-N—((R)-1-(2-methyl-3-(trifluoromethyl)phenyl)ethyl)phthalazin-1-amine], in the assay with pERK in MKN1 cells (setting [2]), the IC50 came out at 176 nM. In assay [1] (setting [3]), the Ki stood at 0.93 nM.

In the case of `Cc1nnc(N[C@H](C)c2cccc(C(F)F)c2F)c2cc(N3CC(C)(O)C3)ncc12` [Example 12-101], in the assay with pERK in MKN1 cells (setting [2]), the IC50 turned out to be 22 nM. In addition, in assay [1] (setting [3]), the Ki came out at 1.45 nM.

Consider `Cc1ncccc1[C@@H](C)Nc1nnc(C)c2ccc(N3CCOCC3)cc12` [Example 10-72, (R)-4-methyl-N-(1-(2-methylpyridin-3-yl)ethyl)-7-morpholinophthalazin-1-amine], for which the IC50 in the assay with pERK in MKN1 cells (setting [2]) is 466 nM. In assay [1] (setting [3]), the Ki was determined as 46.1 nM.

On to `Cc1c([C@@H](C)Nc2nncc3ccc(O[C@H]4C[C@H](N(C)C)C4)cc23)cccc1C(F)(F)F` [Example 2-8, 7-((trans)-3-(dimethylamino)cyclobutoxy)-N-((R)-1-(2-methyl-3-(trifluoromethyl)phenyl)ethyl)phthalazin-1-amine], for which the half-maximal inhibitory concentration (IC50) in the assay with pERK in MKN1 cells (setting [2]) is 148 nM. For the same compound, in assay [1] (setting [3]), the inhibition constant (Ki) stood at 2.99 nM.

As for `Cc1c(C#N)cccc1[C@@H](C)Nc1nnc(C)c2cnc(N3CC4(CCN(C)C4=O)C3)cc12` [Example 12-35], the IC50 in the assay with pERK in MKN1 cells (setting [2]) came out at 35 nM. Besides, in assay [1] (setting [3]), the inhibition constant (Ki) came to 3.78 nM.

Turning to `Cc1nnc(N[C@H](C)c2cc(F)cc(C(F)(F)F)c2)c2cc(N3CCOCC3)ncc12` [Example 6-14, (R)-N-(1-(3-fluoro-5-(trifluoromethyl)phenyl)ethyl)-4-methyl-7-morpholinopyrido[3,4-d]pyridazin-1-amine], the IC50 with pERK in MKN1 cells (setting [2]) was 320 nM. The Ki in assay [1] (setting [3]) is 5.51 nM.

Consider `Cc1c(C#N)cccc1[C@@H](C)Nc1nnc(C)c2cnc(N3C[C@H]4C[C@@H]3CO4)cc12` [Example 12-24], for which, in the assay with pERK in MKN1 cells (setting [2]), the IC50 was 38 nM. Moreover, in assay [1] (setting [3]), the Ki is 1.24 nM.

As for `Cc1cccc([C@@H](C)Nc2nnc(C)c3cnc(N4CC(C)(N(C)C)C4)cc23)c1F` [Example 12-133], the IC50 with pERK in MKN1 cells (setting [2]) turned out to be 97 nM. Further, the Ki in assay [1] (setting [3]) is 11.5 nM.

With `Cc1c([C@@H](C)Nc2nnc(C)c3cnc(OC4CN(C)C4)cc23)cccc1C(F)(F)F` [Example 12-12], the IC50 with pERK in MKN1 cells (setting [2]) came to 249 nM. Besides, the Ki in assay [1] (setting [3]) turned out to be 21.6 nM.

For the compound `Cc1c([C@@H](C)Nc2nncc3ccc(N4CCC5C4CCCN5C)cc23)cccc1C(F)(F)F` (stereo partly drawn) [Example 1-38, N-((R)-1-(2-methyl-3-(trifluoromethyl)phenyl)ethyl)-7-(4-methyloctahydro-1H-pyrrolo[3,2-b]pyridin-1-yl)phthalazin-1-amine], the IC50 with pERK in MKN1 cells (setting [2]) is 136 nM. In addition, the Ki in assay [1] (setting [3]) turned out to be 0.5 nM.

On to `COC1(C)CN(c2cc3c(N[C@H](C)c4cccc(C#N)c4C)nnc(C)c3cn2)C1` [Example 12-55], for which the IC50 with pERK in MKN1 cells (setting [2]) was found to be 59 nM. In assay [1] (setting [3]), the Ki stood at 3.1 nM.

For the compound `Cc1c([C@@H](C)Nc2nnc(C)c3cnc(N4C[C@@H]5C[C@H]4CO5)cc23)cccc1C(F)(F)F` [Example 12-8], in the assay on pERK in MKN1 cells (setting [2]), the IC50 is 38 nM. Moreover, the Ki in assay [1] (setting [3]) came to 1.14 nM.

As for `Cc1c(C#N)cccc1[C@@H](C)Nc1nnc(C)c2cnc(N3C[C@H]4CC[C@@H]3CN4C)cc12` [Example 12-40], in the assay on pERK in MKN1 cells (setting [2]), the IC50 is 24 nM. In addition, the Ki in assay [1] (setting [3]) came to 0.64 nM.

In the assay on pERK in MKN1 cells (MKN-1), `Cc1nnc(N[C@H](C)c2cccc3ccccc23)c2cc(N3CCNCC3)ccc12` [Example 10-43, (R)-4-methyl-N-(1-(naphthalen-1-yl)ethyl)-7-(piperazin-1-yl)phthalazin-1-amine formate salt] returned a concentration for half-maximal inhibition (IC50) of 138 nM. Also, in assay [1] (setting [5]), the Ki stood at 1.13 nM.

The compound `Cc1c([C@@H](C)Nc2nnc(C)c3cc(F)c(N4CCOCC4)cc23)cccc1C(F)(F)F` [Example 18-2, (R)-6-fluoro-4-methyl-N-(1-(2-methyl-3-(trifluoromethyl)phenyl)ethyl)-7-morpholinophthalazin-1-amine] yielded an IC50 in the assay with pERK in MKN1 cells (setting [4]) of 380 nM. Further, the Ki in assay [1] (setting [5]) stood at 5.27 nM.

For the compound `Cc1cc(F)ccc1[C@@H](C)Nc1nnc(C)c2cnc(N3CC4CC(C3)O4)cc12` [Example 12-84], the IC50 with pERK in MKN1 cells (setting [2]) came out at 280 nM. In addition, the Ki in assay [1] (setting [3]) worked out at 43.4 nM.

Turning to `Cc1nnc(N[C@H](C)c2cccc(C(F)F)c2F)c2cc(N3C[C@H]4C[C@@H]3CO4)ccc12` [Example 10-85, 7-((1R,4R)-2-oxa-5-azabicyclo[2.2.1]heptan-5-yl)-N-((R)-1-(3-(difluoromethyl)-2-fluorophenyl)ethyl)-4-methylphthalazin-1-amine], the IC50 in the assay with pERK in MKN1 cells (setting [2]) was 18 nM. In addition, in assay [1] (setting [3]), the Ki worked out at 0.78 nM.

For `Cc1nnc(N[C@H](C)c2cc(F)cc(C(F)(F)F)c2)c2cc(N3CCOCC3)ccc12` [Example 10-50, (R)-N-(1-(3-fluoro-5-(trifluoromethyl)phenyl)ethyl)-4-methyl-7-morpholinophthalazin-1-amine], in the assay with pERK in MKN1 cells (setting [2]), the IC50 stood at 205 nM. Also, the Ki in assay [1] (setting [3]) worked out at 3.74 nM.

As for `Cc1c([C@@H](C)Nc2nnc(C)c3ccc(N4CCN(C)CC4)cc23)cccc1C(F)(F)F` [Example 6-1, (R)-4-methyl-N-(1-(2-methyl-3-(trifluoromethyl)phenyl)ethyl)-7-(4-methylpiperazin-1-yl)phthalazin-1-amine], the IC50 with pERK in MKN1 cells (setting [2]) was 79 nM. Besides, the Ki in assay [1] (setting [3]) came to 0.11 nM.

As to `Cc1c(C#N)cccc1[C@@H](C)Nc1nnc(C)c2cnc(N3CCN4CCOC[C@@H]4C3)cc12` [Example 12-27], the IC50 with pERK in MKN1 cells (setting [2]) came to 14 nM. Further, the Ki in assay [1] (setting [3]) worked out at 2.81 nM.

For the compound `Cc1c(Cl)cccc1[C@@H](C)Nc1nnc(C)c2cnc(N3CCOCC3)cc12` [Example 6-18, (R)-N-(1-(3-chloro-2-methylphenyl)ethyl)-4-methyl-7-morpholinopyrido[3,4-d]pyridazin-1-amine], the IC50 in the assay with pERK in MKN1 cells (setting [2]) was 3700 nM. Besides, in assay [1] (setting [3]), the Ki is 317 nM.

Turning to `Cc1c([C@@H](C)Nc2nnc(C)c3ccc(N4CCNS(=O)(=O)CC4)cc23)cccc1C(F)(F)F` [Example 10-64, (R)-5-(1-methyl-4-((1-(2-methyl-3-(trifluoromethyl)phenyl)ethyl)amino)phthalazin-6-yl)-1,2,5-thiadiazepane 1,1-dioxide], the IC50 in the assay on pERK in MKN1 cells (setting [2]) worked out at 513 nM. Also, the Ki in assay [1] (setting [3]) was determined as 1.7 nM.

For `Cc1c([C@@H](C)Nc2nncc3ccc(N4CCn5ncnc5C4)cc23)cccc1C(F)(F)F` [Example 1-25, (R)-7-(5,6-dihydro-[1,2,4]triazolo[1,5-a]pyrazin-7(8H)-yl)-N-(1-(2-methyl-3-(trifluoromethyl)phenyl)ethyl)phthalazin-1-amine], the IC50 in the assay on pERK in MKN1 cells (setting [2]) worked out at 47 nM. Also, the Ki in assay [1] (setting [3]) was 0.95 nM.

As for `Cc1nnc(N[C@H](C)c2ccc(F)cc2F)c2cc(N3CC4CC(C3)O4)ncc12` [Example 12-58], the IC50 in the assay with pERK in MKN1 cells (setting [2]) stood at 38 nM. In addition, the Ki in assay [1] (setting [3]) worked out at 14.6 nM.

`COc1c(C#N)cccc1[C@@H](C)Nc1nnc(C)c2cnc(N3CCOCC3)cc12` [Example 17-1, (R)-2-methoxy-3-(1-((4-methyl-7-morpholinopyrido[3,4-d]pyridazin-1-yl)amino)ethyl)benzonitrile] gave an IC50 in the assay with pERK in MKN1 cells (setting [4]) of 30 nM. Moreover, the Ki in assay [1] was 4.33 nM.

Consider `Cc1nnc(N[C@H](C)c2cccc(C(F)F)c2F)c2cc(N3CC(C)(N(C)C)C3)ncc12` [Example 12-115], for which the IC50 in the assay on pERK in MKN1 cells (setting [2]) was 19 nM. In addition, the Ki in assay [1] (setting [3]) was determined as 1.66 nM.

On to `Cc1cn2c(n1)CN(c1ccc3cnnc(N[C@H](C)c4cccc(C(F)(F)F)c4C)c3c1)CC2` [Example 1-40, (R)-N-(1-(2-methyl-3-(trifluoromethyl)phenyl)ethyl)-7-(2-methyl-5,6-dihydroimidazo[1,2-a]pyrazin-7(8H)-yl)phthalazin-1-amine], for which, in the assay with pERK in MKN1 cells (setting [2]), the IC50 is 171 nM. Moreover, the Ki in assay [1] (setting [3]) came to 0.27 nM.

Turning to `Cc1c([C@@H](C)Nc2nnc(C)c3ccc(OC4CCNCC4)cc23)cccc1C(F)(F)F` [Example 7-2, (R)-4-methyl-N-(1-(2-methyl-3-(trifluoromethyl)phenyl)ethyl)-7-(piperidin-4-yloxy)phthalazin-1-amine], the IC50 in the assay with pERK in MKN1 cells (setting [2]) stood at 73 nM. Moreover, in assay [1] (setting [3]), the Ki was 0.33 nM.

Turning to `Cc1c(C#N)cccc1[C@@H](C)Nc1nnc(C)c2cnc(N3CCC(F)(F)CC3)cc12` [Example 12-34], the IC50 in the assay with pERK in MKN1 cells (setting [2]) came to 51 nM. Also, the Ki in assay [1] (setting [3]) was 4.24 nM.

In turn, `Cc1c([C@@H](C)Nc2nnc(C)c3ccc(N4CCNC[C@@H](F)C4)cc23)cccc1C(F)(F)F` [Example 10-63, 7-((R)-6-fluoro-1,4-diazepan-1-yl)-4-methyl-N-((R)-1-(2-methyl-3-(trifluoromethyl)phenyl)ethyl)phthalazin-1-amine Hydrochloride salt] showed an IC50 with pERK in MKN1 cells (MKN-1) of 50 nM. Moreover, in assay [1] (setting [5]), the Ki was 0.54 nM.
